Results on twelve compounds are retold here after ChEMBL document CHEMBL5260845, “Flavone-based arylamides as potential anticancers: Design, synthesis and in vitro cell-based/cell-free evaluations” (2020).

Active and inactive are the calls of the source. The rule behind the calls is not given here.

One assay relates to CCRF-CEM. As to the kind of experiment: Antiproliferative activity against human CCRF-CEM cells assessed as cell growth inhibition at 10 uM by SRB assay. In kind it is functional, cell-based. In general terms: Sulforhodamine B stains cellular protein and so reports cell mass.
Another assay has as its system Hs-578T. The assay can be described thus: Antiproliferative activity against human Hs-578T cells assessed as inhibition of cell growth at 10 uM by SRB assay. The assay is classed as functional, cell-based.
The subject of the next assay is UO-31. As to the kind of experiment: Antiproliferative activity against human UO-31 cells assessed as inhibition of cell growth at 10 uM by SRB assay relative to control. In kind it is functional.
The next assay deals with MOLT-4. The assay can be described thus: Antiproliferative activity against human MOLT-4 cells assessed as cell growth inhibition at 10 uM by SRB assay. In kind it is functional, cell-based.
For a further assay, the system named is NCI-H23. As to the kind of experiment: Antiproliferative activity against human NCI-H23 cells assessed as cell growth inhibition at 10 uM by SRB assay. The assay is classed as functional.
The next assay concerns NCI-H522. As to the kind of experiment: Antiproliferative activity against human NCI-H522 cells assessed as cell growth inhibition at 10 uM by SRB assay. The assay is classed as functional, cell-based.
Another assay concerns HL-60. The assay can be described thus: Antiproliferative activity against human HL-60 cells assessed as cell growth inhibition at 10 uM by SRB assay. The assay is classed as functional, cell-based.
The next assay has as its system K562. The assay can be described thus: Antiproliferative activity against human K562 cells assessed as cell growth inhibition at 10 uM by SRB assay. The assay is classed as functional, cell-based.
The next assay relates to SF-295. The assay can be described thus: Antiproliferative activity against human SF-295 cells assessed as cell growth inhibition at 10 uM by SRB assay. The assay is classed as functional, cell-based.
For a further assay, the system named is SK-MEL-2. As to the kind of experiment: Antiproliferative activity against human SK-MEL-2 cells assessed as cell growth inhibition at 10 uM by SRB assay relative to control. In kind it is functional. Conditions: Homo sapiens, SK-MEL-2, dose 10 µM.
A further assay has as its system NCI-H226. The assay can be described thus: Antiproliferative activity against human NCI-H226 cells assessed as cell growth inhibition at 10 uM by SRB assay. In kind it is functional.
Another assay concerns RPMI-8226. As to the kind of experiment: Antiproliferative activity against human RPMI-8226 cells assessed as cell growth inhibition at 10 uM by SRB assay. In kind it is functional, cell-based.
For another assay, the system named is EKVX. As to the kind of experiment: Antiproliferative activity against human EKVX cells assessed as cell growth inhibition at 10 uM by SRB assay. In kind it is functional.
For another assay, the system named is HOP-92. As to the kind of experiment: Antiproliferative activity against human HOP-92 cells assessed as cell growth inhibition at 10 uM by SRB assay. In kind it is functional, cell-based.
The test system of the next assay is SR. As to the kind of experiment: Antiproliferative activity against human SR cells assessed as cell growth inhibition at 10 uM by SRB assay. In kind it is functional, cell-based.
In the next assay the test system is NCI-H322M. As to the kind of experiment: Antiproliferative activity against human NCI-H322M cells assessed as cell growth inhibition at 10 uM by SRB assay. The assay is classed as functional, cell-based.
A further assay has as its system HOP-62. The assay can be described thus: Antiproliferative activity against human HOP-62 cells assessed as cell growth inhibition at 10 uM by SRB assay. The assay is classed as functional, cell-based.
Another assay concerns NCI-H460. As to the kind of experiment: Antiproliferative activity against human NCI-H460 cells assessed as cell growth inhibition at 10 uM by SRB assay. The assay is classed as functional, cell-based.
In another assay the test system is A549. The assay can be described thus: Antiproliferative activity against human A549 cells assessed as cell growth inhibition at 10 uM by SRB assay. The assay is classed as functional, cell-based.

On to `COc1cc2oc(-c3cccc(NC(=O)c4ccc(C(F)(F)F)cc4)c3)cc(=O)c2c(OC)c1OC`, for which the inhibition result in the assay with CCRF-CEM, with Hs-578T, in the assay on UO-31, with MOLT-4, in the assay on NCI-H522 and in the assay on HL-60 was “Active” throughout. The inhibition entry in the assay on K562, with SF-295, in the assay on RPMI-8226, in the assay with HOP-92 and in the assay with SR was “Active” in each case. The inhibition (usually how much of the control response was suppressed) at 10 µM was less than 50% in the assay on NCI-H23, not above 46% in the assay on SK-MEL-2, less than 50% in the assay with NCI-H226 and less than 50% in the assay on EKVX.

Regarding `COc1cc2oc(-c3ccc(NC(=O)c4ccc(C#N)cc4)cc3)cc(=O)c2c(OC)c1OC`, the inhibition entry in the assay on Hs-578T, in the assay on UO-31, in the assay with NCI-H522, with SF-295 and with HOP-92 was “Active” each time. For the same compound, the inhibition at 10 µM in the assay on NCI-H23, with NCI-H226 and with EKVX was less than 50% throughout.

For the compound `COc1cc2oc(-c3cccc(NC(=O)c4cccc(C#N)c4)c3)cc(=O)c2c(OC)c1OC`, the inhibition result in the assay with CCRF-CEM, in the assay on Hs-578T, in the assay on UO-31, in the assay with MOLT-4, in the assay on NCI-H522 and in the assay on HL-60 was “Active” each time. In addition, the inhibition entry with K562, in the assay with SF-295, in the assay with RPMI-8226, with HOP-92 and in the assay with SR was “Active” throughout. In addition, the inhibition at 10 µM was less than 50% in the assay on NCI-H23, not above 46% in the assay on SK-MEL-2, less than 50% in the assay on NCI-H226 and less than 50% in the assay on EKVX.

Take `COC(=O)c1ccc(C(=O)Nc2ccc(-c3cc(=O)c4c(OC)c(OC)c(OC)cc4o3)cc2)cc1`: the inhibition result in the assay with Hs-578T, in the assay with UO-31, with NCI-H522, in the assay with SF-295 and in the assay on HOP-92 was “Active” throughout. Also, the inhibition at 10 µM in the assay on NCI-H23, in the assay with NCI-H226 and in the assay with EKVX was less than 50% in each case.

On to `COc1cc2oc(-c3cccc(NC(=O)c4ccccc4Br)c3)cc(=O)c2c(OC)c1OC`, for which the inhibition result in the assay with CCRF-CEM, with Hs-578T, in the assay on UO-31, in the assay on MOLT-4, with NCI-H522 and in the assay with HL-60 was “Active” in each case. Further, the inhibition result with K562, in the assay with SF-295, in the assay with RPMI-8226, in the assay on HOP-92 and with SR was “Active” throughout. Besides, the inhibition at 10 µM is less than 50% in the assay on NCI-H23, not above 46% in the assay with SK-MEL-2, less than 50% in the assay on NCI-H226 and less than 50% with EKVX.

With `COC(=O)c1ccc(C(=O)Nc2cccc(-c3cc(=O)c4c(OC)c(OC)c(OC)cc4o3)c2)cc1`, the inhibition result in the assay on CCRF-CEM, with Hs-578T, with UO-31, with MOLT-4, in the assay on NCI-H522 and in the assay with HL-60 was “Active” each time. In addition, the inhibition entry in the assay on K562, with SF-295, in the assay with RPMI-8226, in the assay on HOP-92 and with SR was “Active” each time. The inhibition at 10 µM in the assay on NCI-H23 is less than 50%; in the assay on SK-MEL-2, not above 46%; in the assay with NCI-H226 it was less than 50%; with EKVX, less than 50%.

`COc1cc2oc(-c3ccc(NC(=O)c4ccc(Br)cc4)cc3)cc(=O)c2c(OC)c1OC`: the inhibition entry with CCRF-CEM, in the assay on MOLT-4, in the assay with HL-60, with K562, in the assay on RPMI-8226 and with SR was “inactive” throughout. The inhibition entry in the assay on Hs-578T, in the assay with UO-31, in the assay on NCI-H522, with SF-295 and in the assay with HOP-92 was “Active” in each case. The inhibition at 10 µM with NCI-H23, in the assay on NCI-H226 and with EKVX was less than 50% each time.

For the compound `COc1cc2oc(-c3ccc(NC(=O)c4cccc(Br)c4)cc3)cc(=O)c2c(OC)c1OC`, the inhibition entry with CCRF-CEM, in the assay on Hs-578T, in the assay with UO-31, in the assay on MOLT-4, with NCI-H522 and in the assay with HL-60 was “Active” in each case. In addition, the inhibition entry in the assay on K562, in the assay on SF-295, with RPMI-8226, with HOP-92 and with SR was “Active” throughout. For the same compound, the inhibition at 10 µM in the assay with NCI-H23, with NCI-H226 and in the assay on EKVX was less than 50% in each case.

`COc1cc2oc(-c3cccc(NC(=O)c4ccc(C#N)cc4)c3)cc(=O)c2c(OC)c1OC`: the inhibition result in the assay with CCRF-CEM, in the assay on Hs-578T, with UO-31, with MOLT-4, in the assay on NCI-H23 and in the assay on NCI-H322M was “Active” each time. Besides, the inhibition entry with NCI-H522, with HOP-62, in the assay with HL-60, with K562, in the assay with SF-295 and in the assay with NCI-H226 was “Active” throughout. Besides, the inhibition entry in the assay on RPMI-8226, in the assay on NCI-H460, in the assay with A549, in the assay with EKVX, in the assay with HOP-92 and with SR was “Active” throughout. Further, the inhibition at 10 µM is less than 50% in the assay on NCI-H23, not above 46% with SK-MEL-2, less than 50% in the assay on NCI-H226 and less than 50% in the assay with EKVX.

Regarding `COc1cc2oc(-c3ccc(NC(=O)c4cccc(C#N)c4)cc3)cc(=O)c2c(OC)c1OC`, the inhibition entry in the assay with CCRF-CEM, in the assay on Hs-578T, in the assay on UO-31, in the assay with MOLT-4, with NCI-H522 and in the assay with HL-60 was “Active” each time. In addition, the inhibition result with K562, in the assay on SF-295, in the assay with RPMI-8226, in the assay on HOP-92 and in the assay with SR was “Active” throughout. The inhibition at 10 µM in the assay on NCI-H23, in the assay on NCI-H226 and with EKVX was less than 50% in each case.

For `COc1cc2oc(-c3cccc(C(=O)Nc4ccc(C#N)cc4)c3)cc(=O)c2c(OC)c1OC`, the inhibition entry with NCI-H23, in the assay with NCI-H322M, with NCI-H522, with HOP-62, in the assay with NCI-H226 and in the assay with NCI-H460 was “Active” each time. Also, the inhibition result with A549, in the assay on EKVX and with HOP-92 was “Active” each time.

For `COc1cc2oc(-c3ccc(NC(=O)c4ccc([N+](=O)[O-])cc4)cc3)cc(=O)c2c(OC)c1OC`, the inhibition entry in the assay on Hs-578T, with UO-31, in the assay with NCI-H522, in the assay with SF-295 and in the assay on HOP-92 was “Active” in each case. Moreover, the inhibition at 10 µM in the assay on NCI-H23, with NCI-H226 and in the assay on EKVX was less than 50% each time.
